In patent US7858125B2, “Multi-component biocide composition for wood protection” (priority 2006, dated 2010):

What was measured:
Coptotermes formosans = test: Termite bioassay, no-choice test procedure; assay type: in vivo; settings: dip-treated southern yellow pine blocks, 1 gram of termites, four weeks, 27° C., 80% RH
Protocol: In this Example, various concentrations of a biocide composition were evaluated for its ability to inhibit termite infestation. The ability of the biocide composition was then compared to the ability of disodium octaborate tetrahydrate, a borate component, alone and an untreated control to inhibit termite infestation. Specifically, samples of the subterranean termite, Coptotermes formosans, were collected at the Formosan Termite Research Facility at McNeill, Miss. for a termite bioassay. To begin the termite bioassay, pre-weighed and pre-conditioned southern yellow pine blocks (1×1×1 centimeter) (n=5) were dip-treated with two concentrations of a biocide composition. A first control sample (Control A) was prepared by dipping blocks into DI water. A second control sample (Control B) was prepared by dipping the blocks into 0.28% (by weight) disodium octaborate tetrahydrate. […] Each block was conditioned to ensure all solvent had dissipated prior to being subjected to a termite bioassay according to no-choice test procedure (ASTM 1998). […] Damp filter paper was placed into the lid of each dish to help maintain humidity during a four-week incubation at 27° C. and 80% relative humidity. The dishes were examined daily and mortality of the termites was recorded. […]

[1] = system: Reticulotermes flavipes (Kollar); test: Termite bioassay, no-choice test procedure; assay type: in vivo; settings: dip-treated southern yellow pine blocks, four weeks; for Termite Bioassay Mortality Rating: 1 gram of termites, 27° C., 80% RH; for Termite Bioassay Attack Rating: visual rating 10 (no attack), 9 light, 7 moderate, 4 heavy, 0 (complete failure)
From the text: The biocide compositions were additionally evaluated for their ability to inhibit termite infestation. Specifically, numerous samples of the subterranean termite, Reticulotermes flavipes (Kollar), were collected in Janesville, Wis. for a termite bioassay.
To begin the termite bioassay, pre-weighed and pre-conditioned southern yellow pine blocks (1×1×1 centimeter) (n=5) were dip-treated with either the biocide compositions prepared above or the individual components. Five control samples were prepared by dipping blocks into DI water.
Each block was conditioned to ensure all solvent had dissipated prior to being subjected to a termite bioassay according to no-choice test procedure (ASTM 1998). Each block was then placed in a lidded test dish with 50 grams sand, […] of DI water, and 1 gram of termites. The dishes were incubated at 27° C. and 80% relative humidity for four weeks. The dishes were examined after one and four weeks for tunneling and mortality. The mortality was scaled using a label of “none” (representing a mortality rating of 0%); “slight” (representing a mortality rating of from 1% to 33%); “moderate” (representing a mortality rating of from 34% to 66%) “heavy” (representing a mortality rating of from 67% to 99%); or “complete” (representing a mortality rating of 100%). At the end of the four-week test period, the blocks were removed from the dishes, cleaned, dried, re-conditioned and weighed to determine weight loss of the block, indicating the relative wood consumption of the block by the termites. Additionally, a visual rating of 10 (representing no attack); 9 (representing a light attack); 7 (representing a moderate attack); 4 (representing a heavy attack); or 0 (representing complete failure in inhibiting termite infestation), was recorded for each sample block.

[2] = system: mixed spore preparation of Aspergillus niger, Penicillium chrysogenum and Trichoderma viride; test: Mold resistance of dip-treated wood stakes (ASTM D4445-91), mixed mold spore inoculum; assay type: cell-based; settings: Example 4; unseasoned southern yellow pine stakes dip-treated 15 s, 4 weeks, 27° C., 70% RH; scale 0-5
From the text: The biocide compositions were first tested for the efficacy in preventing mold fungal growth. The mold fungi used in the mold growth analysis included Aspergillus niger 2.242 (available from University of Virginia, Charlottesville, Va.), Penicillium chrysogenum PH02 (an isolate provided by Forest Products Laboratory, Madison, Wis.) and Trichoderma viride ATCC 20476 (available from American Type Culture Collection, Rockville, Md.). The mold fungi were first prepared by growing the various mold fungi species on 2% malt agar. A mixed spore preparation was then prepared by washing the surface of a 2-week old culture of each fungus with 10 milliliters of sterile deionized (DI) water according to the American Society for Testing and Materials (ASTM) standard D4445-91 (1998). Spore suspensions were transferred to a spray bottle and diluted to 100 milliliters with DI water. The spray bottle was adjusted to deliver 1 milliliter inoculum/spray.
Specimens (7×20 millimeters cross section by 7 centimeters long) were cut from unseasoned southern yellow pine mill ends from a Mississippi sawmill and stored at 0° C. Average moisture content of the specimens was 48% by weight (n=3). Southern yellow pine oriented strand board (OSB) specimens (11×20 millimeters cross section by 7 centimeters long) were cut from a full sheet of OSB and conditioned to 70% relative humidity. Five replicate specimen stakes were dip-treated for approximately 15 seconds in each biocide composition and held in a covered container overnight according to the ASTM standard test method D4445-91 (1998). Specimens were then arranged over four layers of blotting paper that was saturated with 30 milliliters DI water and a polyethylene mesh spacer in sterile disposable Petri dishes (150×25 millimeters) (commercially available from B-D Falcon, Los Angeles, Calif.). Untreated stakes were dipped in DI water and served as Control A for water-based test chemicals. Additional stakes were dipped in 70% (by weight) ethanol to serve as Control B for test chemicals of low solubility. […]

C. versicolor = test: Soil block test (AWPA E-10-01), white-rot decay; assay type: cell-based, Coriolus versicolor MAD 697; settings: vacuum-treated southern yellow pine blocks, 12 weeks (Example 1 text; Example 4, FIG. 1)
Protocol: (§1) In addition to the mold fungi analysis above, the biocide compositions were tested for their efficacy in preventing decay fungal growth. The decay fungi used in the decay fungal growth analysis included Postia placenta MAD 698 (Fries) Lars. & Lomb., Gloeophyllum trabeum MAD 617 (Pers:Fries) Murrill, and Coriolus versicolor MAD 697 (L.:Fr.) Pilat. The decay fungi, all obtained from the Center of Forest Mycology Research (Forest Products Laboratory, Madison, Wis.) were maintained on 2% malt agar.
(§2) To test the biocide compositions' abilities to inhibit decay fungal growth, soil block culture bottles were prepared according to American Wood Preservers' Association (AWPA) E-10-01 (2003). Southern yellow pine feeders were inoculated with two brown-rot fungus, P. placenta and G. trabeum and maple feeders were inoculated with one white-rot fungus, C. versicolor. Bottles were incubated at 27° C. and 70% relative humidity for three weeks until the fungus completely colonized each feeder. […] The blocks were weighed and the average percentage weight loss was calculated. […]
(§3) To test the biocide compositions' abilities to inhibit decay fungal growth, soil block culture bottles were first prepared according to American Wood Preservers' Association (AWPA) E-10-01 (2003). […] The blocks were weighed and the average percentage weight loss was calculated.

G. trabeum = test: Soil block test (AWPA E-10-01), brown-rot decay; assay type: cell-based, Gloeophyllum trabeum MAD 617; settings: vacuum-treated southern yellow pine blocks, 12 weeks (Example 1 text; Example 4, FIG. 1)
Protocol: as §1, §2, §3

P. placenta = test: Soil block test (AWPA E-10-01), brown-rot decay; assay type: cell-based, Postia placenta MAD 698; settings: vacuum-treated southern yellow pine blocks, 12 weeks (Example 1 text; Example 4, FIG. 1)
Protocol: as §1, §2, §3

Molecule | Average Weight Loss (%) (Coptotermes formosans) | Termite Bioassay Mortality Rating [1] | Termite Bioassay Attack Rating [1] | Mold Resistance Average Rating, Southern Pine [2] | Inhibition of decay by C. versicolor, in words (C. versicolor) | Inhibition of decay by G. trabeum, in words (G. trabeum) | Inhibition of decay by P. placenta, in words (P. placenta)
O.O.O.O.O=BOB1OB(OB=O)OB2OB([O-])OB([O-])OB(O1)O2.[Na+].[Na+] [Control B, disodium octaborate tetrahydrate] | 4.20 |  |  |  |  |  | 
C[C@@H](c1ncncc1F)[C@](O)(Cn1cncn1)c1ccc(F)cc1F [E, Voriconazole] |  | None | 0.0 | 0.04 |  |  | 
c1ccc2[nH]c(-c3cscn3)nc2c1 [F, Thiabendazole] |  | None | 0.0 | 0.0 |  |  | 
CC(C)c1cccc(O)c(=O)c1 [G, Thujaplicin (isopropyltropolone)] |  | None | 0.0 | 3.2 |  |  | 
Thujaplicin (isopropyltropolone) |  |  |  |  | did not inhibit decay | did not inhibit decay | did not inhibit decay
